In the OligoGym collection:
These antisense oligonucleotides have a phosphorothioate backbone; sugars and methylation of C are not fully specified.

Columns and labels:
Settings in all cases: ASO
EGR1 = target: EGR1
SUMO1 = target: SUMO1
PLA2G4A = target: PLA2G4A
REL = target: REL
Further: test concentration or dose not given here.

Work on GTGGGCAGAAAGGATTGT yielded a remaining target (mRNA or protein) (fraction of control) (EGR1) of 0.8.

In the case of GAAAATGTCAGTGTTCGG, the remaining target (mRNA or protein) (fraction of control) (EGR1) was ≥ 1.

For AGGATTGAGGGAAAAGAA, the remaining target (mRNA or protein) (fraction of control) (SUMO1) was ≥ 1.

With CCACTGGGCAAGCGTAAG the remaining target (mRNA or protein) (fraction of control) (EGR1) was ≥ 1.

With GGAAGGGCTTCTGGTCTG the remaining target (mRNA or protein) (fraction of control) (EGR1) was ≥ 1.

With CCAAATAAGTCGGGAGCC the remaining target (mRNA or protein) (fraction of control) (PLA2G4A) was 0.09.

In the case of CCCCGCCGCCTCCACCGC, the remaining target (mRNA or protein) (fraction of control) (EGR1) was 0.38.

CATTTTAGCCCACTTTTC was tested, and the remaining target (mRNA or protein) (fraction of control) (PLA2G4A) was ≥ 1.

For CAAAATGCTGCATCTATA, the remaining target (mRNA or protein) (fraction of control) (REL) was 0.79.

AGAGGATCACCATTGGTT was tested, and the remaining target (mRNA or protein) (fraction of control) (EGR1) was ≥ 1.

In the case of TAAATGTGAGCCCACTGT, the remaining target (mRNA or protein) (fraction of control) (PLA2G4A) was ≥ 1.

CACTGCCCCAGACACCCA was tested, and the remaining target (mRNA or protein) (fraction of control) (PLA2G4A) was ≥ 1.

In the case of AAATCGTAGGTCTGGGCA, the remaining target (mRNA or protein) (fraction of control) (PLA2G4A) was ≥ 1.

With GTGAACCAGAAACGCCCA the remaining target (mRNA or protein) (fraction of control) (PLA2G4A) was ≥ 1.

For GGGTTTACAAATCCTTCC, the remaining target (mRNA or protein) (fraction of control) (SUMO1) was ≥ 1.

Work on TTACTGTTACGGGTTCTG yielded a remaining target (mRNA or protein) (fraction of control) (REL) of 0.64.

For TGCCCCAGACACCCATTA, the remaining target (mRNA or protein) (fraction of control) (PLA2G4A) was 0.88.

For ATACGCACCGGAGGCCAT, the remaining target (mRNA or protein) (fraction of control) (REL) was ≥ 1.

For CTTCCCGCAGGCAGCTCC, the remaining target (mRNA or protein) (fraction of control) (REL) was 0.56.

In the case of TCCATCTCCCACTGAAAG, the remaining target (mRNA or protein) (fraction of control) (SUMO1) was 0.53.

With ATCAAGGGATACGGCAGG the remaining target (mRNA or protein) (fraction of control) (PLA2G4A) was 0.51.

In the case of CTTTTCCATAATAGTTCA, the remaining target (mRNA or protein) (fraction of control) (REL) was 0.85.

With CCATATAAATCTGCTGAT the remaining target (mRNA or protein) (fraction of control) (REL) was ≥ 1.

With TTTGCTTTATTGCCGTAA the remaining target (mRNA or protein) (fraction of control) (REL) was ≥ 1.

CCCCTTTGTCACTTTGGT gave a remaining target (mRNA or protein) (fraction of control) (PLA2G4A) of 0.33.

With GAACCAGAAACGCCCAAA the remaining target (mRNA or protein) (fraction of control) (PLA2G4A) was ≥ 1.

In the case of ACTGCTATCCTGTCCAAT, the remaining target (mRNA or protein) (fraction of control) (SUMO1) was 0.67.

With AGGCCATTATCATACGAT the remaining target (mRNA or protein) (fraction of control) (PLA2G4A) was ≥ 1.

For AAATAAGTCGGGAGCCAT, the remaining target (mRNA or protein) (fraction of control) (PLA2G4A) was ≥ 1.

In the case of AACGGAACAACACTCTGA, the remaining target (mRNA or protein) (fraction of control) (EGR1) was ≥ 1.

In the case of GTTTGATGAGCTGGGACT, the remaining target (mRNA or protein) (fraction of control) (EGR1) was ≥ 1.

With TCGAGTGGTTTGGCTGGG the remaining target (mRNA or protein) (fraction of control) (EGR1) was ≥ 1.

CTCCTTCAGCCCTTCCCG was tested, and the remaining target (mRNA or protein) (fraction of control) (PLA2G4A) was ≥ 1.

For AAGGGATACGGCAGGTTA, the remaining target (mRNA or protein) (fraction of control) (PLA2G4A) was ≥ 1.

TCCGTTTTGAACACCACA gave a remaining target (mRNA or protein) (fraction of control) (SUMO1) of 0.29.

With CTCAGTTGAAGGTTTTGC the remaining target (mRNA or protein) (fraction of control) (SUMO1) was ≥ 1.

With GGAATTGGCTCTGAGAAC the remaining target (mRNA or protein) (fraction of control) (EGR1) was ≥ 1.

For CGGCAGGGTAGGCAGGAG, the remaining target (mRNA or protein) (fraction of control) (EGR1) was 0.56.

With TCATATTCACAGAACAAT the remaining target (mRNA or protein) (fraction of control) (REL) was ≥ 1.

For GATGATGGTTGGGCAATC, the remaining target (mRNA or protein) (fraction of control) (PLA2G4A) was ≥ 1.

TCTTTCCCCTTTCCCTTT was tested, and the remaining target (mRNA or protein) (fraction of control) (EGR1) was 0.93.

TTGTATTCGCTATGTCCA showed a remaining target (mRNA or protein) (fraction of control) (REL) of 0.53.

With GAAAAGAGGTAAAGGGCA the remaining target (mRNA or protein) (fraction of control) (PLA2G4A) was ≥ 1.

In the case of CGCAGGCGAAGGGCTTTT, the remaining target (mRNA or protein) (fraction of control) (EGR1) was ≥ 1.

For ATGCCTCTTGCGTTCATC, the remaining target (mRNA or protein) (fraction of control) (EGR1) was ≥ 1.

TGTAATCCCAGCACTTTG was tested, and the remaining target (mRNA or protein) (fraction of control) (REL) was 0.73.

CACTCCTTCAGCCCTTCC was tested, and the remaining target (mRNA or protein) (fraction of control) (PLA2G4A) was ≥ 1.

GGGTCTCCGCACAGCAGC was tested, and the remaining target (mRNA or protein) (fraction of control) (SUMO1) was ≥ 1.

For GATGGCGGCGGCGGCTCC, the remaining target (mRNA or protein) (fraction of control) (EGR1) was ≥ 1.

With CATGGCACAGACACTGTA the remaining target (mRNA or protein) (fraction of control) (EGR1) was ≥ 1.

With ATGTCCGAAAGCCCTGTG the remaining target (mRNA or protein) (fraction of control) (EGR1) was ≥ 1.

For GGTGAAGAACTTGGACAT, the remaining target (mRNA or protein) (fraction of control) (EGR1) was ≥ 1.

For AGTCAGGAGGCCGAGGGA, the remaining target (mRNA or protein) (fraction of control) (REL) was ≥ 1.

TCGCTGCGGCTGAAGTTG was tested, and the remaining target (mRNA or protein) (fraction of control) (EGR1) was ≥ 1.

Sequence ATTCTCAGTCAGTATTAT has a remaining target (mRNA or protein) (fraction of control) (REL) of 0.75.

With CAGATGTTTCAAAGAGAT the remaining target (mRNA or protein) (fraction of control) (SUMO1) was ≥ 1.

ACAATGAAAACAAACAAT was tested, and the remaining target (mRNA or protein) (fraction of control) (SUMO1) was ≥ 1.

With TCATTTATCATGCTGTTA the remaining target (mRNA or protein) (fraction of control) (REL) was ≥ 1.

With AGATGGTGCTGAGGACGA the remaining target (mRNA or protein) (fraction of control) (EGR1) was ≥ 1.

In the case of TGGGTGCAGGCTCCAGGG, the remaining target (mRNA or protein) (fraction of control) (EGR1) was ≥ 1.

For TGCGGATGTGGCGGGTGA, the remaining target (mRNA or protein) (fraction of control) (EGR1) was ≥ 1.

AATTTCCAGTATTTATGC gave a remaining target (mRNA or protein) (fraction of control) (SUMO1) of 0.45.

In the case of TGAATCTCACTGCTATCC, the remaining target (mRNA or protein) (fraction of control) (SUMO1) was ≥ 1.

GTTTCTTGAGATGTGTTG showed a remaining target (mRNA or protein) (fraction of control) (SUMO1) of 0.86.

With TTCTTTTGGAGTATGATT the remaining target (mRNA or protein) (fraction of control) (SUMO1) was ≥ 1.

With AGCAGTGTTCTGTTGTAT the remaining target (mRNA or protein) (fraction of control) (SUMO1) was ≥ 1.

For GAAGTCTTGGATTATCAG, the remaining target (mRNA or protein) (fraction of control) (REL) was ≥ 1.

For GAGAGGAGAAGGAGGTGG, the remaining target (mRNA or protein) (fraction of control) (EGR1) was ≥ 1.

With CAGTATGATTCTTTGAGT the remaining target (mRNA or protein) (fraction of control) (SUMO1) was 0.53.

For TATCCAAAATCCATGCAA, the remaining target (mRNA or protein) (fraction of control) (EGR1) was ≥ 1.

For CCAGGAGTGAAGTAATCA, the remaining target (mRNA or protein) (fraction of control) (SUMO1) was ≥ 1.
